Test results as given in ChEMBL document CHEMBL3994671, “Similarity- and Substructure-Based Development of β2-Adrenergic Receptor Ligands Based on Unusual Scaffolds” (ACS Med Chem Lett, 2017).
Active and inactive are the calls of the source. The rule behind the calls is not given here.

Key:
[1] = biological target: T1, Beta-2 adrenergic receptor (Homo sapiens, UniProt P07550); test: Displacement of [3H]DHA from beta2-AR (unknown origin) expressed in baculovirus infected sf9 cell membranes after 1 hr by scintillation counting method
Target sequence in this assay (P07550 whole entry): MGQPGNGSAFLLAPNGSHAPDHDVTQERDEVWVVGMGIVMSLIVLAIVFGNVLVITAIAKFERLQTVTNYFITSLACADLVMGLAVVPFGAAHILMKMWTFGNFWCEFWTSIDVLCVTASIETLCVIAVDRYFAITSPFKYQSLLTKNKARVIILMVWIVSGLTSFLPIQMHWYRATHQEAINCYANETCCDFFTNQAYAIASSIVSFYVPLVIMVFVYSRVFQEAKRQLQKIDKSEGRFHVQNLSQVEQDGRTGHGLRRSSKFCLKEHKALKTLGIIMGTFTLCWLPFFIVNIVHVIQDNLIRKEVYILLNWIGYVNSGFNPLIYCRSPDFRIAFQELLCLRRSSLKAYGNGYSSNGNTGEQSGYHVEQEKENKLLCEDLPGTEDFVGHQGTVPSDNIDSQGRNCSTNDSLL

[2] = biological target: T1, Beta-2 adrenergic receptor; test: Displacement of [3H](-)CGP12177 from human beta2-AR expressed in CHOK1 cells after 2 hrs by TopCount microscintillation counting method; type: cell-based
[3] = biological target: T2, Beta-1 adrenergic receptor (Homo sapiens, UniProt P08588); test: Displacement of [3H](-)CGP12177 from human beta1-AR expressed in CHOK1 cells after 2 hrs by TopCount microscintillation counting method; type: cell-based
Target sequence in this assay (P08588 whole entry): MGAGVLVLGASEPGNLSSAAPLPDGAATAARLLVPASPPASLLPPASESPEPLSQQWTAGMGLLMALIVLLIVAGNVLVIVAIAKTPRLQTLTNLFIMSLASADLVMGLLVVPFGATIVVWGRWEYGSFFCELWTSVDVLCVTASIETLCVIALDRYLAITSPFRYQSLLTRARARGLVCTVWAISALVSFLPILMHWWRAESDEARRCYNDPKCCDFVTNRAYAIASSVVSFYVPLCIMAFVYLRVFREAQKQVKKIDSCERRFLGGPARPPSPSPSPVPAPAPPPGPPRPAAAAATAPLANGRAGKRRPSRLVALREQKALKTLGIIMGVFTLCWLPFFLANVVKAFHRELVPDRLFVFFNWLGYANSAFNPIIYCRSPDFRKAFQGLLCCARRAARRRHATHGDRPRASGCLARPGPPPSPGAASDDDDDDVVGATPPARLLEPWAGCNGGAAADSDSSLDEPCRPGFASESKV

[4] = biological target: T2, Beta-1 adrenergic receptor; test: Antagonist activity at human beta1-AR expressed in CHOK1 cells assessed as inhibition of cimaterol-induced CRE-SPAP production at 100 uM after 5 hrs; type: functional, cell-based
Target sequence in this assay (P08588 whole entry, looked up): as the sequence (P08588 whole entry) above

Homo sapiens = species on record: Homo sapiens; test: Selectivity ratio of Kd for human beta1-AR expressed in CHOK1 cells to Kd for human beta2-AR expressed in CHOK1 cells; type: cell-based
[5] = biological target: T1, Beta-2 adrenergic receptor; test: Antagonist activity at human beta2-AR expressed in CHOK1 cells assessed as inhibition of cimaterol-induced CRE-SPAP production at 100 uM after 5 hrs; type: functional, cell-based
Target sequence in this assay (P07550 whole entry, looked up): as the sequence (P07550 whole entry) above

[6] = biological target: T1, Beta-2 adrenergic receptor; test: Antagonist activity at human beta2-AR expressed in CHOK1 cells assessed as inhibition of cimaterol-induced CRE-SPAP production at 20 uM after 5 hrs; type: functional, cell-based
Target sequence in this assay (P07550 whole entry, looked up): as the sequence (P07550 whole entry) above

[7] = biological target: T1, Beta-2 adrenergic receptor; test: Antagonist activity at human beta2-AR expressed in CHOK1 cells assessed as inhibition of cimaterol-induced CRE-SPAP production at 2 uM after 5 hrs; type: functional, cell-based
Target sequence in this assay (P07550 whole entry, looked up): as the sequence (P07550 whole entry) above

[8] = biological target: T2, Beta-1 adrenergic receptor; test: Antagonist activity at human beta1-AR expressed in CHOK1 cells assessed as inhibition of cimaterol-induced CRE-SPAP production at 2 uM after 5 hrs; type: functional, cell-based
Target sequence in this assay (P08588 whole entry, looked up): as the sequence (P08588 whole entry) above

[9] = biological target: T2, Beta-1 adrenergic receptor; test: Antagonist activity at human beta1-AR expressed in CHOK1 cells assessed as inhibition of cimaterol-induced CRE-SPAP production at 20 uM after 5 hrs; type: functional, cell-based
Target sequence in this assay (P08588 whole entry, looked up): as the sequence (P08588 whole entry) above

[10] = biological target: T2, Beta-1 adrenergic receptor; test: Displacement of [3H](-)CGP12177 from human beta1-AR expressed in CHOK1 cells at 20 to 100 uM after 2 hrs by TopCount microscintillation counting method relative to control; type: cell-based
Target sequence in this assay (P08588 whole entry, looked up): as the sequence (P08588 whole entry) above

[11] = biological target: T2, Beta-1 adrenergic receptor; test: Partial agonist activity at human beta1-AR expressed in CHOK1 cells assessed as inhibition of cimaterol-induced CRE-SPAP production after 5 hrs; type: functional, cell-based
Target sequence in this assay (P08588 whole entry, looked up): as the sequence (P08588 whole entry) above

[12] = biological target: T2, Beta-1 adrenergic receptor; test: Partial agonist activity at human beta1-AR expressed in CHOK1 cells assessed as CRE-SPAP production after 5 hrs; type: functional, cell-based
Target sequence in this assay (P08588 whole entry, looked up): as the sequence (P08588 whole entry) above

[13] = biological target: T2, Beta-1 adrenergic receptor; test: Partial agonist activity at human beta1-AR expressed in CHOK1 cells assessed as CRE-SPAP production after 5 hrs in presence of beta1-AR antagonist CGP20712A; type: functional, cell-based
[14] = biological target: T1, Beta-2 adrenergic receptor; test: Partial agonist activity at human beta2-AR expressed in CHOK1 cells assessed as inhibition of cimaterol-induced CRE-SPAP production after 5 hrs; type: functional, cell-based
Target sequence in this assay (P07550 whole entry): as the sequence (P07550 whole entry) above

[15] = biological target: T1, Beta-2 adrenergic receptor; test: Neutral antagonist activity at human beta2-AR expressed in CHOK1 cells assessed as inhibition of cimaterol-induced CRE-SPAP production at 100 uM after 5 hrs; type: functional, cell-based
Target sequence in this assay (P07550 whole entry, looked up): as the sequence (P07550 whole entry) above

[16] = biological target: T2, Beta-1 adrenergic receptor; test: Neutral antagonist activity at human beta1-AR expressed in CHOK1 cells assessed as inhibition of cimaterol-induced CRE-SPAP production at 100 uM after 5 hrs; type: functional, cell-based

Row | SMILES | Kd ([2]; read-out: pKd (converted)) | Kd [3] | Selectivity ratio (Homo sapiens) | further results
1 | CC(O)CNCCOc1ccccc1-c1ccccc1 (centres undefined) | – | – | – | Ki [1]: 0.009 to 3.2 µM
2 | COc1cccc(/C=C2\Oc3c(CN4CCCC4)c(O)cc(C)c3C2=O)c1 | 5.5 µM | 35.5 µM | 6.5 | inhibition [4]: Active; inhibition [5]: Active
3 | Cc1cc(O)c(CN(C)C)c2c1C(=O)/C(=C/c1ccccc1)O2 | – | – | 1.9 | –
4 | Cc1cc(O)c(CN2CCCC2)c2c1C(=O)/C(=C/c1cc3ccccc3o1)O2 | – | – | 2.6 | –
5 | CCOC(=O)c1cc(/C=C/c2sc3ccccc3[n+]2C)c2sc3ccccc3n12 | 0.891 µM | 3.09 µM | 3.5 | inhibition [6]: Active; inhibition [7]: Active; inhibition [8]: inactive; inhibition [9]: Active
6 | COCCNCCOc1ccccc1-c1ccccc1 | – | – | – | Ki [1]: 0.009 to 3.2 µM
7 | COc1ccc(C(=O)C[n+]2c(C)n(C(F)F)c3ccccc32)cc1 | – | – | – | inhibition [2]: Active; inhibition [4]: inactive; inhibition [5]: inactive
8 | CCCCN(C)Cc1c(O)cc(C)c2c1O/C(=C\c1cc3cc(Br)ccc3o1)C2=O | – | – | – | inhibition [10]: < 50%
9 | CCOC(=O)C1Oc2cccc(OCC(O)CNC(C)C)c2C1C (centres undefined) | – | – | – | Ki [1]: 0.009 to 3.2 µM
10 | COc1cccc(/C=C2\Oc3c(CN4CCN(C)CC4)c(O)cc(C)c3C2=O)c1 | 17.4 µM | 26.3 µM | 1.5 | –
11 | Cc1n(-c2ccccc2)c2ccc(Cl)cc2[n+]1CCO | – | – | – | inhibition [2]: Active; inhibition [4]: inactive; inhibition [5]: inactive
12 | CCN1C(=Cc2sc3ccccc3[n+]2C)C=Cc2cccc(C)c21 | – | – | – | Ki [1]: 0.009 to 3.2 µM
13 | CC(C)(C)NCC(O)COc1ccccc1-c1ccccc1 (centres undefined) [BERLAFENONE] | – | – | – | Kd ([2]; read-out: Kd): 3.5e-05 µM
14 | COc1cccc(/C=C2\Oc3c(CN(C)C)c(O)cc(C)c3C2=O)c1 | 21.9 µM | 44.7 µM | 2 | –
15 | Cc1cc(O)c(CN2CCCC2)c2c1C(=O)/C(=C\c1ccco1)O2 | – | – | – | Ki [1]: 0.009 to 3.2 µM
16 | C[n+]1c(C2=C(N)N(c3ccccc3)CC2=O)sc2ccccc21 | – | – | – | inhibition [2]: inactive
17 | CCNCCOc1ccccc1-c1ccccc1 | – | – | – | Ki [1]: 0.009 to 3.2 µM
18 | C[n+]1c(/C=C/c2ccccc2Cl)sc2ccccc21 | 4.9 µM | 13.8 µM | 2.8 | –

The next lines start with results.

Row | Kd ([2]; read-out: pKd (converted)) | Kd [3] | SMILES | Selectivity ratio (Homo sapiens) | further results
19 | 3.55e-05 µM | 0.000977 µM | CC(C)(C)NC[C@@H](O)COc1ccccc1-c1ccccc1 | 27.5 | inhibition [11]: Active; Activity [12]: Active; Activity [13]: inactive; Kd [14]: 0.0182 nM
20 | 3.8 µM | 45.7 µM | CN(C)CCOCCOc1ccccc1-c1ccccc1 | 12 | inhibition [15]: Active; inhibition [16]: Active
21 | 23.4 µM | – | CN(C)CCOc1ccc2ccccc2c1C=O | 4.2 | –
22 | 38.9 µM | – | C[n+]1c(/C=C/Nc2ccccc2)sc2ccccc21 | 6.6 | –
23 | 2.63 µM | 27.5 µM | C=CCNCCOc1ccccc1-c1ccccc1 | 10.5 | inhibition [4]: Active; inhibition [5]: Active
